In patent US12329739B2, “Isoflavonoid compounds and methods for the treatment of cancer” (Aardvark Therapeutics, Inc., priority 2010, dated 2025):

How the values were obtained:
A2780 = test: MTT proliferation assay, A2780; format: cell-based; conditions: Ovarian, A2780, 120 h of exposure
Procedure: (§1) Proliferation Assays. IC50 values were determined for each cell line. Cells were seeded in 96-well plates at an appropriate cell density as determined from growth kinetics analysis and cultured for 5 days in the absence and presence of the test compounds. Cell proliferation was assessed after the addition of 20 μl of 3-4,5 dimethylthiazol-2,5-diphenyl tetrazolium bromide (MTT, 5 mg/ml in PBS, Sigma) for 5 hrs at 37° C. according to manufacturer's instructions. IC50 values were calculated from semi-log plots of % of control proliferation on the y-axis against log dose on the x-axis.
(§2) Anti-proliferative Activity of Isoflavonoid Derivatives. IC50 values were determined for each cell line after 120 h of exposure.

CP70 = test: MTT proliferation assay, CP70; format: cell-based; conditions: Ovarian, CP70, 120 h of exposure
Procedure: as §1, §2

SKBR-3 = test: MTT proliferation assay, SKBR-3; format: cell-based, human; conditions: Breast, SKBR-3, 120 h of exposure
Procedure: The human colorectal adenocarcinoma line HCT-116 (CCL-247) and the human breast adenocarcinoma line SK-BR-3 (HTB-30) were cultured in McCoy's 5a Medium (Invitrogen) containing 1.5 mM L-glutamine and 2.2 g/L sodium bicarbonate. The human colorectal adenocarcinoma line SW620 (CCL-227) was cultured in Leibovitz's L-15 Medium (Invitrogen) containing 2.05 mM L-glutamine.
as §1, §2

LNCaP = test: MTT proliferation assay, LNCaP; format: cell-based; conditions: Prostate, 120 h of exposure
Procedure: as §1, §2

R-182 = test: MTT proliferation assay, R-182; format: cell-based; conditions: Ovarian, R-182, 120 h of exposure
From the text: Tissue culture. The multidrug resistant primary epithelial ovarian cancer cell line R-182 TARA was a gift from Dr. Gil Mor (Yale University, New Haven, CT, USA). This cell line was derived by explant from ovarian tumors and cultured as previously described. All other cell lines were purchased from American Type Culture Collection (ATCC, Manassas, VA, USA) with the exception of MKN1, HuH-7, JHH-1, which were purchased from the Japanese Collection of Research Bioresources (JCRB, Osaka, Japan), and OE19 which was purchased from the European Collection of Cell Cultures (ECACC, Salisbury, UK).
as §1, §2

SK-Hep-1 = test: MTT proliferation assay, SK-Hep-1; format: cell-based, human; conditions: Liver, SK-Hep-1, 120 h of exposure
Procedure: (§3) The human hepatocellular carcinoma lines HepG2 (HB-8065), SK-HEP-1 (HTB-52) and the normal human lung fibroblast line IMR-90 (CCL-186) were cultured in Minimum Essential Eagles Medium containing 2 mM L-glutamine, 2.2 g/L sodium bicarbonate, supplemented with 1 mM sodium pyruvate and 0.1 mM non-essential amino acids. The human hepatocellular carcinoma line JHH-1 (JCRB1062) was cultured in Williams E Medium (Invitrogen) containing 2.2 g/L sodium bicarbonate, supplemented with 2 mM L-glutamine. The hepatocellular carcinoma line HuH-7 (JCRB0403) was cultured in DMEM, supplemented with 2 mM L-glutamine.
as §1, §2

COLO205 = test: MTT proliferation assay, COLO205; format: cell-based, human; conditions: CRC, COLO205, 120 h of exposure
Procedure: (§4) The human non-small cell lung adenocarcinoma lines NCI-H1299 (CRL-5803), NCI-H460 (HTB-177), NCI-H358 (CRL-5807), NCI-H838 (CRL-5844), the human colorectal adenocarcinoma lines COLO 205 (CCL-222), HCT-15 (CCL-225) and the human gastric cancer cell line NCI-N87 (CRL-5822) were cultured in RPMI 1640 medium containing 2 g/L sodium bicarbonate (Hyclone/Invitrogen) supplemented with 2 mM L-glutamine (Gibco) 1 mM sodium pyruvate (Sigma), 10 mM HEPES (Sigma) and 4500 mg/L glucose (Sigma). The human non-small cell lung adenocarcinoma line NCI-H2126 (CCL-256) was cultured in DMEM:F12(1:1) (Hyclone/Invitrogen) containing 2.5 mM L-glutamine 2.4 g/L sodium bicarbonate supplemented with 5% fetal bovine serum (FBS), an additional 2 mM L-glutamine, 15 mM HEPES, 0.005 mg/ml insulin (Sigma), 0.01 mg/ml transferrin (Sigma), 30 nM sodium selenite (Sigma), 10 nM hydrocortisone (Sigma) and 10 nM beta-estradiol (Sigma). The human colorectal adenocarcinoma line HT-29 (HTB-38) and the human gastric cancer cell lines OE-19 (#96071721) and MKN1 (JCRB0252) were cultured in RPMI 1640 media supplemented with 2 mM L-glutamine.
as §1, §2

PC3 = test: MTT proliferation assay, PC3; format: cell-based; conditions: Prostate, PC3, 120 h of exposure
Procedure: as §1, §2

A2058 = test: MTT proliferation assay, A2058; format: cell-based; conditions: Melanoma, A2058, 120 h of exposure
Procedure: as §1, §2

HuH-7 = test: MTT proliferation assay, HuH-7; format: cell-based, human; conditions: Liver, HuH-7, 120 h of exposure
Procedure: as §3, §1, §2

CALU3 = test: MTT proliferation assay, CALU3; format: cell-based; conditions: NSCLC, CALU3, 120 h of exposure
Procedure: as §1, §2

MM200 = test: MTT proliferation assay, MM200; format: cell-based; conditions: Melanoma, MM200, 120 h of exposure
Procedure: as §1, §2

DU145 = test: MTT proliferation assay, DU145; format: cell-based; conditions: Prostate, DU145, 120 h of exposure
Procedure: as §1, §2

NCI-H460 = test: MTT proliferation assay, NCI-H460; format: cell-based, human; conditions: NSCLC, NCI-H460, 120 h of exposure
Procedure: as §4, §1, §2

A549 = test: MTT proliferation assay, A549; format: cell-based; conditions: NSCLC, A549, 120 h of exposure
Procedure: as §1, §2

HepG2 = test: MTT proliferation assay, HepG2; format: cell-based, human; conditions: Liver, HepG2, 120 h of exposure
Procedure: as §3, §1, §2

4405 = test: MTT proliferation assay, 4405; format: cell-based; conditions: Melanoma, 4405, 120 h of exposure
Procedure: as §1, §2

MDA-MB-468 = test: MTT proliferation assay, MDA-MB-468; format: cell-based, human; conditions: Breast, MDA-MB-468, 120 h of exposure
Procedure: The human gastric cancer cell line AGS (CRL-1739) was cultured in Hams F-12K (Kaighans modification) medium containing 2 mM L-glutamine, 2.5 g/L sodium bicarbonate and 2 mM sodium pyruvate. The human breast adenocarcinoma line MDA-MB-468 (HTB-132) was cultured in DMEM:F12 (1:1) medium containing 2.5 mM L-glutamine, 2.4 g/L sodium bicarbonate, supplemented with an additional 2 mM L-glutamine.
as §1, §2

[1] = Homo sapiens, MDA-MB-468, 120 h

SMILES	IC50 (A2780; Homo sapiens, A2780, 120 h) [nM]	IC50 (SKBR-3; Homo sapiens, SK-BR-3, 120 h) [nM]	IC50 (LNCaP; Homo sapiens) [nM]	IC50 (SK-Hep-1; Homo sapiens, SK-HEP1) [nM]	IC50 (COLO205; Homo sapiens, COLO 205) [nM]	IC50 (PC3; Homo sapiens, PC-3, 120 h) [nM]	IC50 (HuH-7; Homo sapiens) [nM]	IC50 (CALU3; Homo sapiens, Calu-3) [nM]	IC50 (DU145; Homo sapiens, DU-145) [nM]	IC50 (NCI-H460; Homo sapiens) [nM]	IC50 (A549; Homo sapiens) [nM]	IC50 (HepG2; Homo sapiens) [nM]	IC50 (MDA-MB-468; [1]) [nM]	IC50 (CP70; 120 h) [nM]	IC50 (R-182) [nM]	IC50 (A2058; Homo sapiens, A2058, 120 h) [nM]	IC50 (MM200) [nM]	IC50 4405 [nM]	other results
COc1ccc(C2c3ccc(O)c(C)c3OCC2c2ccc(O)cc2)cc1C (stereo not drawn) [Compound 7, 3-(4-hydroxyphenyl)-4-(4-methoxy-3-methylphenyl)-8-methylchroman-7-ol]	1600 to 10000	510 to 1500	1600 to 10000	1600 to 10000	≥ 10000	1600 to 10000	1600 to 10000	1600 to 10000	1600 to 10000	1600 to 10000	1600 to 10000	1600 to 10000	1600 to 10000	1600 to 10000	1600 to 10000	1600 to 10000	≥ 10000	1600 to 10000	–
Cc1cc([C@H]2c3ccc(O)c(C)c3OC[C@H]2c2ccc(O)cc2)ccc1O (relative stereo) [l-6, l-cis-3-(4-hydroxyphenyl)-4-(4-hydroxy-3-methylphenyl)-8-methylchroman-7-ol]	–	–	–	–	–	–	–	–	–	–	–	–	–	–	≥ 10000	–	≥ 10000	≥ 10000	IC50 (A2780): ≥ 10000 nM; IC50 (CP70): ≥ 10000 nM; IC50 (SKBR-3): 1600 to 10000 nM; IC50 (LNCaP): ≥ 10000 nM; IC50 (SK-Hep-1): ≥ 10000 nM; IC50 (COLO205): ≥ 10000 nM; IC50 (PC3): ≥ 10000 nM; IC50 (A2058): ≥ 10000 nM; IC50 (HuH-7): ≥ 10000 nM; IC50 (CALU3): ≥ 10000 nM; IC50 (DU145): ≥ 10000 nM; IC50 (NCI-H460): ≥ 10000 nM; IC50 (A549): ≥ 10000 nM; IC50 (HepG2): ≥ 10000 nM; IC50 (MDA-MB-468): ≥ 10000 nM
Cc1c(O)ccc2c1OC[C@H](c1ccc(O)cc1)[C@@H]2c1ccc(O)cc1 [l-5, l-cis-3-(4-hydroxyphenyl)-4-(4-hydroxyphenyl)-8-methylchroman-7-ol]	≥ 10000	≥ 10000	≥ 10000	≥ 10000	≥ 10000	≥ 10000	≥ 10000	≥ 10000	≥ 10000	≥ 10000	≥ 10000	≥ 10000	≥ 10000	≥ 10000	≥ 10000	≥ 10000	≥ 10000	≥ 10000	–
Cc1cc(C2c3ccc(O)c(C)c3OCC2c2ccc(O)cc2)ccc1O (stereo not drawn) [Compound 6, 3-(4-hydroxyphenyl)-4-(4-hydroxy-3-methylphenyl)-8-methylchroman-7-ol]	150 to 500	≤ 150	510 to 1500	150 to 500	1600 to 10000	150 to 500	150 to 500	150 to 500	150 to 500	150 to 500	510 to 1500	150 to 500	150 to 500	510 to 1500	150 to 500	150 to 500	510 to 1500	150 to 500	–
COc1ccc([C@H]2c3ccc(O)c(C)c3OC[C@H]2c2ccc(O)cc2)cc1C [d-7, d-cis-3-(4-hydroxyphenyl)-4-(4-methoxy-3-methylphenyl)-8-methylchroman-7-ol]	510 to 1500	–	1600 to 10000	1600 to 10000	≥ 10000	510 to 1500	510 to 1500	1600 to 10000	510 to 1500	1600 to 10000	1600 to 10000	510 to 1500	150 to 500	510 to 1500	510 to 1500	510 to 1500	–	1600 to 10000	–
Cc1cc([C@H]2c3ccc(O)c(C)c3OC[C@H]2c2ccc(O)cc2)ccc1O (relative stereo) [d-6, d-cis-3-(4-hydroxyphenyl)-4-(4-hydroxy-3-methylphenyl)-8-methylchroman-7-ol]	–	–	–	–	–	–	–	–	–	–	–	–	–	–	≤ 150	–	–	150 to 500	IC50 (A2780): 150 to 500 nM; IC50 (CP70): 150 to 500 nM; IC50 (LNCaP): 150 to 500 nM; IC50 (SK-Hep-1): ≤ 150 nM; IC50 (COLO205): 1600 to 10000 nM; IC50 (PC3): 150 to 500 nM; IC50 (A2058): ≤ 150 nM; IC50 (HuH-7): 150 to 500 nM; IC50 (CALU3): 150 to 500 nM; IC50 (DU145): 150 to 500 nM; IC50 (NCI-H460): 150 to 500 nM; IC50 (A549): 150 to 500 nM; IC50 (HepG2): ≤ 150 nM; IC50 (MDA-MB-468): ≤ 150 nM

Now from value to compound, other results behind:

IC50 (A2780; Homo sapiens, A2780, 120 h) [nM]	IC50 (SKBR-3; Homo sapiens, SK-BR-3, 120 h) [nM]	IC50 (LNCaP; Homo sapiens) [nM]	IC50 (SK-Hep-1; Homo sapiens, SK-HEP1) [nM]	IC50 (COLO205; Homo sapiens, COLO 205) [nM]	IC50 (PC3; Homo sapiens, PC-3, 120 h) [nM]	IC50 (HuH-7; Homo sapiens) [nM]	IC50 (CALU3; Homo sapiens, Calu-3) [nM]	IC50 (DU145; Homo sapiens, DU-145) [nM]	IC50 (NCI-H460; Homo sapiens) [nM]	IC50 (A549; Homo sapiens) [nM]	IC50 (HepG2; Homo sapiens) [nM]	IC50 (MDA-MB-468; [1]) [nM]	SMILES	IC50 (CP70; 120 h) [nM]	IC50 (R-182) [nM]	IC50 (A2058; Homo sapiens, A2058, 120 h) [nM]	IC50 (MM200) [nM]	IC50 4405 [nM]	other results
150 to 500	≤ 150	150 to 500	150 to 500	1600 to 10000	150 to 500	150 to 500	≤ 150	150 to 500	150 to 500	150 to 500	≤ 150	150 to 500	Cc1c(O)ccc2c1OCC(c1ccc(O)cc1)C2c1ccc(O)cc1 (stereo not drawn) [Compound 5, 3-(4-hydroxyphenyl)-4-(4-hydroxyphenyl)-8-methylchroman-7-ol]	≤ 150	150 to 500	≤ 150	150 to 500	150 to 500	–
≥ 10000	–	≥ 10000	≥ 10000	≥ 10000	≥ 10000	≥ 10000	≥ 10000	≥ 10000	≥ 10000	≥ 10000	≥ 10000	≥ 10000	COc1ccc([C@@H]2c3ccc(O)c(C)c3OC[C@@H]2c2ccc(O)cc2)cc1C [l-7, l-cis-3-(4-hydroxyphenyl)-4-(4-methoxy-3-methylphenyl)-8-methylchroman-7-ol]	≥ 10000	≥ 10000	≥ 10000	–	≥ 10000	–
